From patent US20110313156A1 (BOEHRINGER INGELHEIM INTERNATIONAL GMBH, priority 2008, published 2011)

These compounds were tested against T1, His6-PDK1 (aa 52-556) (Homo sapiens, UniProt O15530) (assay: PDK1 kinase assay III (with Tween 20)). Conditions: compound at 10 μM; PDK1 kinase assay III (values without asterisk); read-out: % CTL (residual activity of the enzyme relative to DMSO control).
T1 construct: 15 μL His6-PDK1 (aa 52-556) 3.33 ng/well); host or cells: baculovirus-infected insect cells
T1 sequence (O15530 52-556): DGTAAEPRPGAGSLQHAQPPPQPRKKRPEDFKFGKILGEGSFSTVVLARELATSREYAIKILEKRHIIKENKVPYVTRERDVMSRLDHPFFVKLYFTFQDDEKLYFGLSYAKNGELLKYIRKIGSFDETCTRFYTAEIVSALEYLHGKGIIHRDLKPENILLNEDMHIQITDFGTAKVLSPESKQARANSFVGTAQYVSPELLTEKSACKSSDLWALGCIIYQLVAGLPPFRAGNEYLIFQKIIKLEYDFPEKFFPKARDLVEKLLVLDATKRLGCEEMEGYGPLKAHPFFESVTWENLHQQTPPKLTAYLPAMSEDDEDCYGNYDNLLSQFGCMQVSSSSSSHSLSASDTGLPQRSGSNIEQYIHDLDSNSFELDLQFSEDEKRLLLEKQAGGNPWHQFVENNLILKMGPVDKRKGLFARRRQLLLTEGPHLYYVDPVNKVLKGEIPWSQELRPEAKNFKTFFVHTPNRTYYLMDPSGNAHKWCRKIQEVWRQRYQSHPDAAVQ
Assay type: biochemical
In short: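 Started with ATP, incubated 90 min at ambient temperature, then stopped with phosphoric acid. Asterisked values come from assay II (24 h or 5 min incubation).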

remaining activity at 10 µM [%]	Structure (SMILES)
13.9	CN1CCC(N(C)c2ccc(Nc3ncc4c(F)c(/C=C/CNC(=O)c5cncn(Cc6ccc(F)c(F)c6)c5=O)ccc4n3)cc2)CC1 [IV-35, 1-(3,4-difluorobenzyl)-N-{(2E)-3-[5-fluoro-2-({4-[methyl(1-methylpiperidin-4-yl)amino]phenyl}amino)quinazolin-6-yl]prop-2-en-1-yl}-6-oxo-1,6-dihydropyrimidine-5-carboxamide]
17.9	CN(C)Cc1ccc(Nc2ncc3cc(/C=C/CNC(=O)c4cc(Cl)nn(Cc5ccc(F)c(F)c5)c4=O)ccc3n2)cc1 [IV-39, 6-chloro-2-(3,4-difluorobenzyl)-N-{(2E)-3-[2-({4-[(dimethylamino)methyl]phenyl}amino)quinazolin-6-yl]prop-2-en-1-yl}-3-oxo-2,3-dihydropyridazine-4-carboxamide]
16.3	CN1CCC(N(C)c2ccc(Nc3ncc4cc(/C=C/CNC(=O)c5cn(C)c(=O)n(Cc6ccc(F)c(F)c6)c5=O)ccc4n3)cc2)CC1 [IV-44, 3-(3,4-difluorobenzyl)-1-methyl-N-{(2E)-3-[2-({4-[methyl(1-methylpiperidin-4-yl)amino]phenyl}amino)quinazolin-6-yl]prop-2-en-1-yl}-2,4-dioxo-1,2,3,4-tetrahydro-pyrimidine-5-carboxamide]
15.3	CN1CCC(N(C)c2ccc(Nc3ncc4cc(/C=C/CNC(=O)c5cncn(Cc6ccc(F)c(F)c6)c5=O)ccc4n3)cc2)CC1 [IV-45, 1-(3,4-difluorobenzyl)-N-{(2E)-3-[2-({4-[methyl(1-methylpiperidin-4-yl)amino]-phenyl}amino)quinazolin-6-yl]prop-2-en-1-yl}-6-oxo-1,6-dihydropyrimidine-5-carboxamide]
11.9	CN1CCC(Nc2ccc(Nc3ncc4cc(/C=C/CNC(=O)c5cncn(Cc6ccc(F)c(F)c6)c5=O)ccc4n3)cc2F)CC1 [IV-46, 1-(3,4-difluorobenzyl)-N-{(2E)-3-[2-({3-fluoro-4-[(1-methylpiperidin-4-yl)amino]-phenyl}amino)quinazolin-6-yl]prop-2-en-1-yl}-6-oxo-1,6-dihydropyrimidine-5-carboxamide]
24.4	Nc1ncc2cc(/C=C/CNC(=O)c3cncn(Cc4ccc(F)c(F)c4)c3=O)ccc2n1 [IV-48, N-[(2E)-3-(2-aminoquinazolin-6-yl)prop-2-en-1-yl]-1-(3,4-difluorobenzyl)-6-oxo-1,6-dihydropyrimidine-5-carboxamide]
13.5	CN1CCC(N(C)c2ccc(Nc3ncc4cc(/C=C/CNC(=O)c5nccn(Cc6ccc(F)c(F)c6)c5=O)ccc4n3)cc2)CC1 [IV-49, 4-(3,4-difluorobenzyl)-N-{(2E)-3-[2-({4-[methyl(1-methylpiperidin-4-yl)amino]-phenyl}amino)quinazolin-6-yl]prop-2-en-1-yl}-3-oxo-3,4-dihydropyrazine-2-carboxamide]
14.5	CN(C)Cc1ccc(Nc2ncc3cc(/C=C/CNC(=O)c4ccnn(Cc5ccc(F)c(F)c5)c4=O)ccc3n2)cc1 [IV-51, 2-(3,4-difluorobenzyl)-N-{(2E)-3-[2-({4-[(dimethylamino)methyl]phenyl}-amino)quinazolin-6-yl]prop-2-en-1-yl}-3-oxo-2,3-dihydropyridazine-4-carboxamide]
17.2	CN1CCC(N(C)c2ccc(Nc3ncc4cc(/C=C/CNC(=O)c5ccnn(Cc6ccc(F)c(F)c6)c5=O)ccc4n3)cc2)CC1 [IV-52, 2-(3,4-difluorobenzyl)-N-{(2E)-3-[2-({4-[methyl(1-methylpiperidin-4-yl)amino]-phenyl}amino)quinazolin-6-yl]prop-2-en-1-yl}-3-oxo-2,3-dihydropyridazine-4-carboxamide]
33.4	CCOC(=O)c1ccc(Nc2ncc3cc(/C=C/CNC(=O)c4cncn(Cc5ccc(F)c(F)c5)c4=O)ccc3n2)cc1 [IV-53, ethyl-4-({6-[(1E)-3-({[1-(3,4-difluorobenzyl)-6-oxo-1,6-dihydropyrimidin-5-yl]carbonyl}amino)prop-1-en-1-yl]quinazolin-2-yl}amino)benzoate]
18.8	O=C(NC/C=C/c1ccc2ncncc2c1)c1cncn(Cc2ccc(F)c(F)c2)c1=O [IV-56, 1-(3,4-difluorobenzyl)-6-oxo-N-[(2E)-3-(quinazolin-6-yl)prop-2-en-1-yl]-1,6-dihydropyrimidine-5-carboxamide]

Further lines, the compound ahead of its results:

Structure (SMILES)	remaining activity at 10 µM [%]
Cc1c(C(=O)NC/C=C/c2ccc3nc(Nc4ccc(CN(C)C)cc4)ncc3c2F)c(=O)n(Cc2ccc(F)c(F)c2)n1C [IV-34, 2-(3,4-difluorobenzyl)-N-{(2E)-3-[2-({4-[(dimethylamino)methyl]phenyl}amino)-5-fluoroquinazolin-6-yl]prop-2-en-1-yl}-1,5-dimethyl-3-oxo-2,3-dihydro-1H-pyrazole-4-carboxamide]	14.4
Cc1c(C(=O)NC/C=C/c2ccc3nc(Nc4ccc(N(C)C5CCN(C)CC5)cc4)ncc3c2F)c(=O)n(Cc2ccc(F)c(F)c2)n1C [IV-36, 2-(3,4-difluorobenzyl)-N-{(2E)-3-[5-fluoro-2-({4-[methyl(1-methylpiperidin-4-yl)amino]phenyl}amino)quinazolin-6-yl]prop-2-en-1-yl}-1,5-dimethyl-3-oxo-2,3-dihydro-1H-pyrazole-4-carboxamide]	14.2
Cc1c(/C=C/CNC(=O)c2c(C)n(C)n(Cc3ccc(F)c(F)c3)c2=O)c(=O)n(C(C)C)c2nc(Nc3ccc(N4CCOCC4)cc3)ncc12 [IV-37, 2-(3,4-difluorobenzyl)-1,5-dimethyl-N-{(2E)-3-[5-methyl-2-{[4-(morpholin-4-yl)phenyl]amino}-7-oxo-8-(propane-2-yl)-7,8-dihydropyrido[2,3-c]pyrimidin-6-yl]prop-2-en-1-yl}-3-oxo-2,3-dihydro-1H-pyrazole-4-carboxamide]	15.4
Cc1c(/C=C/CNC(=O)c2cncn(Cc3ccc(F)c(F)c3)c2=O)c(=O)n(C(C)C)c2nc(Nc3ccc(N4CCOCC4)cc3)ncc12 [IV-38, 1-(3,4-difluorobenzyl)-N-{(2E)-3-[5-methyl-2-{[4-(morpholin-4-yl)phenyl]amino}-7-oxo-8-(propane-2-yl)-7,8-dihydropyrido[2,3-d]pyrimidin-6-yl]prop-2-en-1-yl}-6-oxo-1,6-dihydropyrimidine-5-carboxamide]	11.8
O=C(NCc1ccc(-c2cnc3[nH]ccc3c2)s1)c1cncn(Cc2ccc(F)c(F)c2)c1=O [IV-41, 1-(3,4-difluorobenzyl)-6-oxo-N-{[5-(1H-pyrrolo[2,3-b]pyridin-5-yl)thiophen-2-yl]methyl}-1,6-dihydropyrimidine-5-carboxamide]	24.4
Cc1c(C(=O)NCc2ccc(-c3cnc4[nH]ccc4c3)s2)c(=O)n(Cc2ccc(F)c(F)c2)n1C [IV-42, 2-(3,4-difluorobenzyl)-1,5-dimethyl-3-oxo-N-{[5-(1H-pyrrolo[2,3-b]pyridin-5-yl)thiophen-2-yl]methyl}-2,3-dihydro-1H-pyrazole-4-carboxamide]	27.7
CN1CCC(Nc2ccc(Nc3ncc4cc(/C=C/CNC(=O)c5cn(C)c(=O)n(Cc6ccc(F)c(F)c6)c5=O)ccc4n3)cc2F)CC1 [IV-43, 3-(3,4-difluorobenzyl)-N-{(2E)-3-[2-({3-fluoro-4-[(1-methylpiperidin-4-yl)amino]-phenyl}amino)quinazolin-6-yl]prop-2-en-1-yl}-1-methyl-2,4-dioxo-1,2,3,4-tetrahydro-pyrimidine-5-carboxamide]	17.3
CN1CCC(Nc2ccc(Nc3ncc4cc(/C=C/CNC(=O)c5nccn(Cc6ccc(F)c(F)c6)c5=O)ccc4n3)cc2F)CC1 [IV-50, 4-(3,4-difluorobenzyl)-N-{(2E)-3-[2-({3-fluoro-4-[(1-methylpiperidin-4-yl)amino]-phenyl}amino)quinazolin-6-yl]prop-2-en-1-yl}-3-oxo-3,4-dihydropyrazine-2-carboxamide]	11.6
Cc1c(C(=O)NC/C=C/c2ccc3nc(Nc4ccc(N(C)C5CCN(C)CC5)cc4)ncc3c2)c(=O)n(Cc2ccc(F)c(F)c2)n1C [IV-54, 2-(3,4-difluorobenzyl)-1,5-dimethyl-N-{(2E)-3-[2-({4-[methyl(1-methylpiperidin-4-yl)amino]phenyl}amino)quinazolin-6-yl]prop-2-en-1-yl}-3-oxo-2,3-dihydro-1H-pyrazole-4-carboxamide]	16.6
Cc1c(C(=O)NC/C=C/c2ccc3nc(Nc4ccc(NC5CCN(C)CC5)c(F)c4)ncc3c2)c(=O)n(Cc2ccc(F)c(F)c2)n1C [IV-55, 2-(3,4-difluorobenzyl)-N-{(2E)-3-[2-({3-fluoro-4-[(1-methylpiperidin-4-yl)amino]-phenyl}amino)quinazolin-6-yl]prop-2-en-1-yl}-1,5-dimethyl-3-oxo-2,3-dihydro-1H-pyrazole-4-carboxamide]	16.5
Cc1c(C(=O)NC/C=C/c2ccc3ncncc3c2)c(=O)n(Cc2ccc(F)c(F)c2)n1C [IV-57, 2-(3,4-difluorobenzyl)-1,5-dimethyl-3-oxo-N-[(2E)-3-(quinazolin-6-yl)prop-2-en-1-yl]-2,3-dihydro-1H-pyrazole-4-carboxamide]	35.5
